Assay results: ChEMBL document CHEMBL1795326, “Pharmacophore based virtual screening, molecular docking studies to design potent heat shock protein 90 inhibitors” (Eur J Med Chem, 2011)

Assay: Inhibition of HSP90

| IC50 [µM] | SMILES |
| --- | --- |
| 30 | Cc1nc(N)nc2c1/C(=N/O)C[C@@H](c1ccc(F)cc1-c1cccnc1)C2 |
| 60 | Cc1ccccc1[C@H]1CCCN1C(=O)c1ccc(O)cc1O |
| 190 | Oc1ccc2c(-c3cc(Br)c(O)cc3O)noc2c1 |
| 40 | CCOC(=O)NCc1ccc(-n2cnnc2-c2cc(C(C)C)c(O)cc2O)cc1 |
